One test deals with human LSD1(172-833) (Homo sapiens (Human), UniProt O60341). Put plainly: Measurement of LSD1 inhibitory activity (time-resolved fluorescence, biotin-histone H3 mono methylated K4 peptide). It is filed as biochemical. In a few lines:
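Remaining signal detected by TR-FRET after 60 min with europium anti-histone H3 antibody and streptavidin-XL665 in potassium fluoride/0.1% BSA.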

The target in the next test is MAO-A enzyme (Homo sapiens (Human), UniProt P21397). Briefly: Measurement of MAO-A inhibitory activity (MAO-Glo Assay). It is filed as biochemical.
Sequence of MAO-A enzyme (P21397 whole entry): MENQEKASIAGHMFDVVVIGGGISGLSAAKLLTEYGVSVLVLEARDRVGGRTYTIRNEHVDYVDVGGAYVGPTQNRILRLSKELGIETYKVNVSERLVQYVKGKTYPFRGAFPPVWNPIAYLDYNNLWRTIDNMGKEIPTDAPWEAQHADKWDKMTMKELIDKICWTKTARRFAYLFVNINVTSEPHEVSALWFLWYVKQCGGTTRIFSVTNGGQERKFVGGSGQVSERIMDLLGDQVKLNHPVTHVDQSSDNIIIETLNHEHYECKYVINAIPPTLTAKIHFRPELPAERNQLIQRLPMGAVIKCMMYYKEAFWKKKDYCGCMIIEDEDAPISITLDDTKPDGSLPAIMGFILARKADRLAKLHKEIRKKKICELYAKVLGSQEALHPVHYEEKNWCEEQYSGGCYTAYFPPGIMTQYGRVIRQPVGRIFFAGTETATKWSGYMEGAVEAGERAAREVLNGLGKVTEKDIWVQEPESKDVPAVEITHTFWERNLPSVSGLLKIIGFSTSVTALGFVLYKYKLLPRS
Another test concerns the target MAO-B enzyme (Homo sapiens (Human), UniProt P27338). Put plainly: Measurement of MAO-B inhibitory activity (MAO-Glo Assay).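 Note: luminescence read-out, compound preincubated 10 min with enzyme then reacted 60 min at room temperature, inhibition relative to enzyme reaction without compound, blank lacking enzyme and compound.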 Particulars: read-out: MAO-B IC50 value.

Structures can show the parent of a compound that is named as a salt.

Sequence of MAO-B enzyme (P27338 whole entry): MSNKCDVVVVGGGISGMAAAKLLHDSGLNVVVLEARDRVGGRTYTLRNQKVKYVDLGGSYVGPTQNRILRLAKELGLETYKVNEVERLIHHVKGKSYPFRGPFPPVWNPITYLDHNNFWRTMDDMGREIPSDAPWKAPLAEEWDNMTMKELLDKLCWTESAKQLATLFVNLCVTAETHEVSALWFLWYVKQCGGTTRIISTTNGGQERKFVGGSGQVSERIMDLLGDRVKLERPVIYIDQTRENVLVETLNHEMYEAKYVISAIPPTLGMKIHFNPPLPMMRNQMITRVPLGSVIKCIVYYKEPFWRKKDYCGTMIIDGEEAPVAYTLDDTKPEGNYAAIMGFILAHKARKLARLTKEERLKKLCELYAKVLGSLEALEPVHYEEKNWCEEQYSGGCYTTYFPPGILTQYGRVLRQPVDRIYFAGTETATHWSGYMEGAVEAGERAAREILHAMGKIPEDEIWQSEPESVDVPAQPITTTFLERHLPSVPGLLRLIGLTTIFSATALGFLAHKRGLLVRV
Procedure for MAO-A enzyme: The MAO-A inhibitory activity evaluation described below followed the protocol of MAO-Glo (registered trademark) Assay of Promega KK.
A test compound dissolved in 4% DMSO was added by 12.5 μL to 25 μL reaction solution (100 mM HEPES (pH 7.5), 5% glycerol) containing 400 ng of MAO-A enzyme (Sigma-Aldrich Co. LLC.), and the mixture was reacted at room temperature for 10 min. […] After reaction at room temperature for 60 min, Luciferine detection reagent (Promega KK) (50 μL) was added to terminate the reaction. After reaction at room temperature for min with stirring, the luminescence was measured by Envision (PerkinElmer). The MAO-A inhibitory rate (%) of the test compound was calculated by the following formula. inhibitory rate(%)=(1−(test compound count−blank)÷(control−blank))×100
The count of the MAO-A enzyme reaction mixture under compound non-addition conditions is indicated as control, and the count under compound non-addition and MAO-A enzyme non-addition conditions is indicated as blank.
Procedure for MAO-B enzyme: The MAO-B inhibitory activity evaluation described below followed the protocol of MAO-Glo (registered trademark) Assay of Promega KK.
A test compound dissolved in 4% DMSO was added by 12.5 μL to 25 μL reaction solution (100 mM HEPES (pH 7.5), 5% glycerol, 10% DMSO) containing 400 ng of MAO-B enzyme (Sigma-Aldrich Co. LLC.), and the mixture was reacted at room temperature for 10 min. […] After reaction at room temperature for 60 min, Luciferine detection reagent (Promega KK) (50 μL) was added to terminate the reaction. After reaction at room temperature for 20 min with stirring, the luminescence was measured by Envision (PerkinElmer). The MAO-B inhibitory rate (%) of the test compound was calculated by the following formula. inhibitory rate(%)=(1−(test compound count−blank)÷(control−blank))×100
The count of the MAO-B enzyme reaction mixture under compound non-addition conditions is indicated as control, and the count under compound non-addition and MAO-B enzyme non-addition conditions is indicated as blank.

For the compound `Cc1csc(CN[C@@H]2C[C@H]2c2ccc(C(=O)NCc3ccccc3)cc2)c1` (relative stereo) [Example 49, N-benzyl-4-(trans-2-(((4-methyl-2-thienyl)methyl)amino)cyclopropyl)benzamide trifluoroacetate], the half-maximal inhibitory concentration (IC50) against human LSD1(172-833) is under 0.1 µM; on MAO-A enzyme, 1.8 µM; at MAO-B enzyme, over 10 µM.
Turning to `O=C(Nc1ccccc1)c1cccc([C@@H]2C[C@H]2NCC2CC2)c1` (relative stereo) [Example 13, 3-(trans-2-((cyclopropylmethyl)amino)cyclopropyl)-N-phenylbenzamide hydrochloride], the IC50 was under 0.1 µM on human LSD1(172-833), over 10 µM at MAO-A enzyme and over 10 µM on MAO-B enzyme.
As for `COc1ccccc1CN[C@@H]1C[C@H]1c1ccc(C(=O)NCc2ccccc2)cc1` (relative stereo) [Example 32, N-benzyl-4-(trans-2-((2-methoxybenzyl)amino)cyclopropyl)benzamide trifluoroacetate], the figures for the half-maximal inhibitory concentration (IC50) against human LSD1(172-833), on MAO-A enzyme and on MAO-B enzyme were under 0.1 µM, over 10 µM and over 10 µM, respectively.
Take `N#Cc1cccc(CNC(=O)c2ccc([C@@H]3C[C@H]3NCC3CC3)cc2)c1` (relative stereo) [Example 25, N-(3-cyanobenzyl)-4-(trans-2-((cyclopropylmethyl)amino)cyclopropyl)benzamide trifluoroacetate]: the IC50 is under 0.1 µM on human LSD1(172-833), over 10 µM against MAO-A enzyme and over 10 µM on MAO-B enzyme.
Take `N[C@@H]1C[C@H]1c1ccc(C(=O)Nc2ccc(-c3ncccn3)cc2)cc1` (relative stereo) [Example 50, 4-(trans-2-aminocyclopropyl)-N-(4-(pyrimidin-2-yl)phenyl)benzamide dihydrochloride]: the 50% inhibitory concentration (IC50) at human LSD1(172-833) was under 0.1 µM; at MAO-A enzyme, 0.2 µM; at MAO-B enzyme, over 10 µM.
On the same counts, the results for `COc1ccc(CN[C@@H]2C[C@H]2c2ccc(C(=O)NCc3ccccc3)cc2)cc1` (relative stereo) [Example 35, N-benzyl-4-(trans-2-((4-methoxybenzyl)amino)cyclopropyl)benzamide trifluoroacetate] are under 0.1 µM, 3.1 µM and over 10 µM.
On the same counts, the results for `O=C(Nc1cnn(CC2CC2)c1)c1cccc([C@@H]2C[C@H]2NC2CCC(F)(F)CC2)c1` (relative stereo) [Example 204, N-(1-(cyclopropylmethyl)-1H-pyrazol-4-yl)-3-(trans-2-((4,4-difluorocyclohexyl)amino)cyclopropyl)benzamide dihydrochloride] are under 0.1 µM, over 10 µM and over 10 µM.
On the same counts, the results for `O=C(Nc1cccc(-c2ncccn2)c1)c1cccc([C@@H]2C[C@H]2NCC2CC2)c1` (relative stereo) [Example 81, 3-(trans-2-((cyclopropylmethyl)amino)cyclopropyl)-N-(3-(pyrimidin-2-yl)phenyl)benzamide dihydrochloride] are under 0.1 µM, 5.2 µM and over 10 µM.
For `O=C(Nc1ccc(Cc2ccccc2)cc1)c1cccc([C@@H]2C[C@H]2NCC2CC2)c1` (relative stereo) [Example 129, N-(4-benzylphenyl)-3-(trans-2-((cyclopropylmethyl)amino)cyclopropyl)benzamide trifluoroacetate], the 50% inhibitory concentration (IC50) was under 0.1 µM against human LSD1(172-833), over 10 µM against MAO-A enzyme and over 10 µM at MAO-B enzyme.
As to `O=C(Nc1cccc(C(F)(F)F)c1)c1ccc([C@@H]2C[C@H]2NC2CCS(=O)(=O)CC2)cc1` (relative stereo) [Example 62, 4-(trans-2-((1,1-dioxidotetrahydro-2H-thiopyran-4-yl)amino)cyclopropyl)-N-(3-(trifluoromethyl)phenyl)benzamide hydrochloride], the 50% inhibitory concentration (IC50) on human LSD1(172-833) is under 0.1 µM; against MAO-A enzyme, over 10 µM; at MAO-B enzyme it was 4.8 µM.
Consider `CC(C)(C)CN[C@@H]1C[C@H]1c1cccc(C(=O)NC2CC(F)(F)C2)c1` (relative stereo) [Example 154, N-(3,3-difluorocyclobutyl)-3-(trans-2-((2,2-dimethylpropyl)amino)cyclopropyl)benzamide hydrochloride], for which the IC50 against human LSD1(172-833) is under 0.1 µM; against MAO-A enzyme, over 10 µM; on MAO-B enzyme it was over 10 µM.
Take `Cc1cc(NC(=O)c2cccc([C@@H]3C[C@H]3NCC3CCOCC3)c2)on1` (relative stereo) [Example 92, N-(3-methyl-1,2-oxazol-5-yl)-3-(trans-2-((tetrahydro-2H-pyran-4-ylmethyl)amino)cyclopropyl)benzamide hydrochloride]: the IC50 is under 0.1 µM on human LSD1(172-833), over 10 µM at MAO-A enzyme and over 10 µM at MAO-B enzyme.
`COc1cc(Cl)ccc1CN[C@@H]1C[C@H]1c1ccc(C(=O)NCc2ccccc2)cc1` (relative stereo) [Example 41, N-benzyl-4-(trans-2-((4-chloro-2-methoxybenzyl)amino)cyclopropyl)benzamide trifluoroacetate]: the figures for the half-maximal inhibitory concentration (IC50) on human LSD1(172-833), on MAO-A enzyme and at MAO-B enzyme were under 0.1 µM, 6.6 µM and over 10 µM, respectively.
On the same counts, the results for `N[C@@H]1C[C@H]1c1ccc(C(=O)NC2CCCCC2)cc1` (relative stereo) [Example 6, 4-(trans-2-aminocyclopropyl)-N-cyclohexylbenzamide hydrochloride] are under 0.1 µM, 0.32 µM and 4.2 µM.
For `O=C(Nc1ccc(-c2cn3c(n2)SCC3)cc1)c1cccc([C@@H]2C[C@H]2NCC2CC2)c1` (relative stereo) [Example 127, 3-(trans-2-((cyclopropylmethyl)amino)cyclopropyl)-N-(4-(2,3-dihydroimidazo[2,1-b][1,3]thiazol-6-yl)phenyl)benzamide bis(trifluoroacetate)], the figures for the IC50 at human LSD1(172-833), against MAO-A enzyme and at MAO-B enzyme were under 0.1 µM, over 10 µM and over 10 µM, respectively.
On to `N[C@@H]1C[C@H]1c1ccc(C(=O)NCc2ccccc2)cc1` (relative stereo) [Example 2, 4-(trans-2-aminocyclopropyl)-N-benzylbenzamide hydrochloride], for which the IC50 against human LSD1(172-833) is under 0.1 µM; against MAO-A enzyme, 0.1 µM; at MAO-B enzyme, over 10 µM.
On the same counts, the results for `COc1ccc(F)c(CN[C@@H]2C[C@H]2c2ccc(C(=O)NCc3ccccc3)cc2)c1` (relative stereo) [Example 40, N-benzyl-4-(trans-2-((2-fluoro-5-methoxybenzyl)amino)cyclopropyl)benzamide trifluoroacetate] are under 0.1 µM, over 10 µM and over 10 µM.
On the same counts, the results for `O=C(Nc1ccc2[nH]ncc2c1)c1cccc([C@@H]2C[C@H]2NCC2CC2)c1` (relative stereo) [Example 146, 3-(trans-2-((cyclopropylmethyl)amino)cyclopropyl)-N-(1H-indazol-5-yl)benzamide trifluoroacetate] are under 0.1 µM, over 10 µM and over 10 µM.
On the same counts, the results for `O=C(Nc1ccc2[nH]c(=O)sc2c1)c1cccc([C@@H]2C[C@H]2NCC2CC2)c1` (relative stereo) [Example 147, 3-(trans-2-((cyclopropylmethyl)amino)cyclopropyl)-N-(2-oxo-2,3-dihydro-1,3-benzothiazol-6-yl)benzamide trifluoroacetate] are under 0.1 µM, over 10 µM and over 10 µM.
Turning to `O=C(NCc1cccc(Oc2cnccn2)c1)c1ccc([C@@H]2C[C@H]2NCC2CC2)cc1` (relative stereo) [Example 29, 4-(trans-2-((cyclopropylmethyl)amino)cyclopropyl)-N-(3-(pyrazin-2-yloxy)benzyl)benzamide bis(trifluoroacetate)], the IC50 on human LSD1(172-833) is under 0.1 µM; on MAO-A enzyme it was 7.3 µM; at MAO-B enzyme, over 10 µM.
Take `O=C(NCc1cccc(Oc2ccccc2)c1)c1ccc([C@@H]2C[C@H]2NCC2CC2)cc1` (relative stereo) [Example 21, 4-(trans-2-((cyclopropylmethyl)amino)cyclopropyl)-N-(3-phenoxybenzyl)benzamide trifluoroacetate]: the concentration for half-maximal inhibition (IC50) at human LSD1(172-833) was under 0.1 µM; against MAO-A enzyme, 1.8 µM; on MAO-B enzyme, over 10 µM.
On the same counts, the results for `O=C(Nc1cnn(CC(F)(F)F)c1)c1cccc([C@@H]2C[C@H]2NCC2CC2)c1` (relative stereo) [Example 151, 3-(trans-2-((cyclopropylmethyl)amino)cyclopropyl)-N-(1-(2,2,2-trifluoroethyl)-1H-pyrazol-4-yl)benzamide hydrochloride] are under 0.1 µM, over 10 µM and over 10 µM.
On the same counts, the results for `CCn1cc(NC(=O)c2cccc([C@@H]3C[C@H]3NCC3CCOCC3)c2)cn1` (relative stereo) [Example 86, N-(1-ethyl-1H-pyrazol-4-yl)-3-(trans-2-((tetrahydro-2H-pyran-4-ylmethyl)amino)cyclopropyl)benzamide dihydrochloride] are under 0.1 µM, over 10 µM and over 10 µM.
On the same counts, the results for `CC(=O)N1CCC(N[C@@H]2C[C@H]2c2cccc(C(=O)Nc3cnn(Cc4ccc(F)cc4)c3)c2)CC1` (relative stereo) [Example 218, 3-(trans-2-((1-acetylpiperidin-4-yl)amino)cyclopropyl)-N-(1-(4-fluorobenzyl)-1H-pyrazol-4-yl)benzamide dihydrochloride] are under 0.1 µM, over 10 µM and over 10 µM.

A word on the IC50: it is the concentration that gives 50% inhibition.
